Read-outs that look alike come from different tables or passages of the source.
What was measured:
[1] = system: HCV genotype 1a (H77 strain) replicon in HUH-7 cells; test: HCV replicon luciferase reporter assay, genotype 1a; format: cell-based; details: Hepatitis C virus, Huh-7, 72 h, 3 days incubation, read-out: LE_1a (EC50, range)
Text: (§1) An HCV replicon whole cell system was established as described by Lohmann V, Korner F, Koch J, Herian U, Theilmann L, Bartenschlager R., Science 285(5424):110-3 (1999) and modified to introduce a luciferase reporter, as first described by Krieger et al (Krieger N, Lohmann V, and Bartenschlager R, J. Virol. 75(10):4614-4624 (2001)). CDNA encoding a humanized form of the Renilla luciferase gene and a linker sequence fused directly to the 3′-end of the luciferase gene were introduced into the replicon construct using an Asc1 restriction site located in core, directly upstream of the neomycin marker gene. The adaptive mutation at position 1179 (serine to isoleucine) was also introduced (Blight K J, Kolykhalov, A A, Rice, C M, Science 290(5498):1972-1974). A stable cell line constitutively expressing this HCV replicon construct was generated by first linearizing plasmid DNAs with ScaI. RNA transcripts were synthesized in vitro using the T7 MegaScript transcription kit (Ambion, Austin, Tex.) according to manufacturer's directions. In vitro transcripts of the cDNA were transfected into the human hepatoma cell line, HUH-7. […] Resulting cell lines were characterized for positive and negative strand RNA production and protein production over time.
A stable HCV replicon luciferase reporter cell line representing the genotype 1a H77 strain (Yanagi M, Purcell R H, Emerson S U, et al. Transcripts from a single full-length cDNA clone of hepatitis C virus are infectious when directly transfected into the liver of a chimpanzee. Proc Natl Acad Sci USA 1997; 94(16):8738-8743) was generated as described previously for the genotype 1b (Con1) replicon luciferase cell line. The replicon construct was modified by introducing mutations were introduced into the genes encoding the NS3 helicase domain (proline replaced by leucine at position 1496) and NS5A (serine to isoleucine at position 2204) to improve replication in cell culture.
(§2) HCV replicon luciferase assays were developed to monitor the inhibitory effects of compounds described in the disclosure on HCV genotypes 1a and 1b viral replication. HUH-7 cells, constitutively expressing the HCV replicon, were grown in Dulbecco's Modified Eagle Media (DMEM) (Gibco-BRL) containing 10% Fetal calf serum (FCS) (Sigma) and 1 mg/mL G418 (Gibco-BRL). Compounds were serially diluted 3 folds in DMSO for a twenty-point titration and subsequently transferred to sterile 384-well tissue-culture treated plates (Corning cat #3571). The plates were then seeded with 50 μL of cells at a density of 3.0×10^3 cells/well in DMEM containing 4% FCS (final DMSO concentration at 0.5%). After 3 days incubation at 37° C., cells were analyzed for Renilla Luciferase activity using the EnduRen as substrate (Promega cat #E6485). The EnduRen substrate was diluted in DMEM and then added to the plates to a final concentration of 7.5 μM. The plates were incubated for 2 hrs at 37° C. and then read immediately for 30 seconds with Viewlux Imager (PerkinElmer) using a luminescence program. To assess cytotoxicity of compounds, CC50 values were generated by multiplexing the EnduRen-containing plates with Cell Titer-Blue (Promega, cat # G8082). Cell-Titer Blue (3 μL) was added to each well and incubated for 8 hrs at 37° C. The fluorescence signal from each well was read, with an excitation wavelength at 525/10 nm and an emission wavelength of 598/10 nm, using the Viewlux Imager.
(§3) The EC50 values for compounds were calculated by using a four-parameter logistic equation: y=A+((B−A)/(1+((C/x)^D))), where A and B denotes minimal and maximal % inhibition, respectively, C is the EC50, D is the hill slope and x represents compound concentration.

[2] = system: HCV genotype 1b (Con1) replicon in HUH-7 cells; test: HCV replicon luciferase reporter assay, genotype 1b; format: cell-based; details: Hepatitis C virus, 72 h, 3 days incubation, read-out: LE_1b (EC50, range)
Text: as §1, with “time. […]” for “time.”
as §2, §3

[3] = HCV genotype 1a replicon luciferase, class symbols
[4] = HCV genotype 1b replicon luciferase, class symbols
[5] = HCV genotype 1a replicon luciferase, range class
[6] = HCV genotype 1b replicon luciferase, range class

Row | SMILES | EC50 [1, 3] [nM] | EC50 [2, 4] [nM] | EC50 [1, 5] [nM] | EC50 [2, 6] [nM] | also measured
1 | CCOc1ccc2c(O[C@@H]3C[C@H]4C(=O)N[C@]5(C(=O)NS(=O)(=O)C6(C)CC6)C[C@H]5/C=C\CC[C@@H](C)C[C@@H](C)[C@H](NC(=O)O[C@@H]5C[C@@H]6C[C@@H]6C5)C(=O)N4C3)nccc2c1 [Compound 5138, (1R,3r,5S)-bicyclo[3.1.0]hexan-3-yl ((2R,6S,7R,9R,13 aS,14aR,16aS,Z)-2-((6-ethoxyisoquinolin-1-yl)oxy)-7,9-dimethyl-14a-(((1-methylcyclopropyl)sulfonyl)carbamoyl)-5,16-dioxo-1,2,3,5,6,7,8,9,10,11,13a,14,14a,15,16,16a-hexadecahydrocyclopropa[e]pyrrolo[1,2-a][1,4]diazacyclopentadecin-6-yl)carbamate] | < 5.46 | < 5.46 | – | – | –
2 | C[C@@H]1CC/C=C\[C@@H]2C[C@@]2(C(=O)NS(=O)(=O)C2(CF)CC2)NC(=O)[C@@H]2C[C@@H](Oc3nc4c(c5ccccc35)OCCC4)CN2C(=O)[C@@H](NC(=O)OC(C)(C)C(C)(F)F)[C@H](C)C1 [Compound 6032, 3,3-difluoro-2-methylbutan-2-yl ((2R,6S,7R,9R,13aS,14aR,16aS,Z)-2-((3,4-dihydro-2H-pyrano[3,2-c]isoquinolin-6-yl)oxy)-14a-(((1-(fluoromethyl)cyclopropyl)sulfonyl)carbamoyl)-7,9-dimethyl-5,16-dioxo-1,2,3,5,6,7,8,9,10,11,13a,14,14a,15,16,16a-hexadecahydrocyclopropa[e]pyrrolo[1,2-a][1,4]diazacyclopentadecin-6-yl)carbamate] | – | – | < 5.46 | < 5.46 | –
3 | CCOc1ccc2c(O[C@@H]3C[C@H]4C(=O)N[C@]5(C(=O)NS(=O)(=O)C6CC6)C[C@H]5/C=C\CC[C@@H](C)C[C@@H](C)[C@H](NC(=O)O[C@@H]5C[C@@H]6C[C@@H]6C5)C(=O)N4C3)nccc2c1 [Compound 5132, (1R,3r,5S)-bicyclo[3.1.0]hexan-3-yl ((2R,6S,7R,9R,13aS,14aR,16aS,Z)-14a-((cyclopropylsulfonyl)carbamoyl)-2-((6-ethoxyisoquinolin-1-yl)oxy)-7,9-dimethyl-5,16-dioxo-1,2,3,5,6,7,8,9,10,11,13a,14,14a,15,16,16a-hexadecahydrocyclopropa[e]pyrrolo[1,2-a][1,4]diazacyclopentadecin-6-yl)carbamate] | < 5.46 | < 5.46 | – | – | –
4 | CC[C@@H]1C[C@H](C)CC/C=C\[C@@H]2C[C@@]2(C(=O)NS(=O)(=O)C2(C)CC2)NC(=O)[C@@H]2C[C@@H](Oc3nc4c(c5ccccc35)OCCC4)CN2C(=O)[C@H]1NC(=O)OC(C)(C)C(F)(F)F [Compound 6028, 1,1,1-trifluoro-2-methylpropan-2-yl ((2R,6S,7R,9R,13aS,14aR,16aS,Z)-2-((3,4-dihydro-2H-pyrano[3,2-c]isoquinolin-6-yl)oxy)-7-ethyl-9-methyl-14a-(((1-methylcyclopropyl)sulfonyl)carbamoyl)-5,16-dioxo-1,2,3,5,6,7,8,9,10,11,13a,14,14a,15,16,16a-hexadecahydrocyclopropa[e]pyrrolo[1,2-a][1,4]diazacyclopentadecin-6-yl)carbamate] | – | – | < 5.46 | < 5.46 | –
5 | COc1ccc2c(O[C@@H]3C[C@H]4C(=O)N[C@]5(C(=O)NS(=O)(=O)C6CC6)C[C@H]5/C=C\CC[C@H](C)C[C@@H](C)[C@H](NC(=O)O[C@@H]5C[C@@H]6C[C@@H]6C5)C(=O)N4C3)nc(-c3ccc(N4CCOCC4)cc3)cc2c1 [Compound 5194, (1R,3r,5S)-bicyclo[3.1.0]hexan-3-yl ((2R,6S,7R,9S,13aS,14aR,16aS,Z)-14a-((cyclopropylsulfonyl)carbamoyl)-2-((6-methoxy-3-(4-morpholinophenyl)isoquinolin-1-yl)oxy)-7,9-dimethyl-5,16-dioxo-1,2,3,5,6,7,8,9,10,11,13a,14,14a,15,16,16a-hexadecahydrocyclopropa[e]pyrrolo[1,2-a][1,4]diazacyclopentadecin-6-yl)carbamate] | – | – | < 5.46 | < 5.46 | –
6 | COc1cnc(O[C@@H]2C[C@H]3C(=O)N[C@]4(C(=O)NS(=O)(=O)C5CC5)C[C@H]4/C=C\CC[C@@H](C)C[C@@H](C)[C@H](NC(=O)OC(C)(C)C(F)(F)F)C(=O)N3C2)c2ccccc12 [Compound 3, 1,1,1-trifluoro-2-methylpropan-2-yl ((2R,6S,7R,9R,13aS,14aR,16aS,Z)-14a-((cyclopropylsulfonyl)carbamoyl)-2-((4-methoxyisoquinolin-1-yl)oxy)-7,9-dimethyl-5,16-dioxo-1,2,3,5,6,7,8,9,10,11,13a,14,14a,15,16,16a-hexadecahydrocyclopropa[e]pyrrolo[1,2-a][1,4]diazacyclopentadecin-6-yl)carbamate] | – | – | – | – | EC50 ([1]; HCV genotype 1a replicon luciferase reporter, range class): < 5.46 nM; EC50 ([2]; HCV genotype 1b replicon luciferase reporter, range class): < 5.46 nM
7 | C[C@H]1CC/C=C\[C@@H]2C[C@@]2(C(=O)NS(=O)(=O)C2CC2)NC(=O)[C@@H]2C[C@@H](Oc3nccc4c5c(ccc34)OC(F)(F)O5)CN2C(=O)[C@@H](NC(=O)O[C@@H]2C[C@@H]3C[C@@H]3C2)[C@H](C)C1 [Compound 5273, (1R,3r,5S)-bicyclo[3.1.0]hexan-3-yl ((2R,6S,7R,9S,13aS,14aR,16aS,Z)-14a-((cyclopropylsulfonyl)carbamoyl)-2-((2,2-difluoro-[1,3]dioxolo[4,5-f]isoquinolin-6-yl)oxy)-7,9-dimethyl-5,16-dioxo-1,2,3,5,6,7,8,9,10,11,13a,14,14a,15,16,16a-hexadecahydrocyclopropa[e]pyrrolo[1,2-a][1,4]diazacyclopentadecin-6-yl)carbamate] | – | – | 4.82 to 103 | 4.82 to 103 | –
8 | C[C@@H]1CC/C=C\[C@@H]2C[C@@]2(C(=O)NS(=O)(=O)C2CC2)NC(=O)[C@@H]2C[C@@H](Oc3ncc(OC(F)F)c4c(Cl)cccc34)CN2C(=O)[C@@H](NC(=O)OC(C)(C)C(F)(F)F)[C@H](C)C1 [Compound 4031, 1,1,1-trifluoro-2-methylpropan-2-yl (2R,6S,7R,9R,13aS,14aR,16aS,Z)-2-(5-chloro-4-(difluoromethoxy)isoquinolin-1-yloxy)-14a-(cyclopropylsulfonylcarbamoyl)-7,9-dimethyl-5,16-dioxo-1,2,3,5,6,7,8,9,10,11,13a,14,14a,15,16,16a-hexadecahydrocyclopropa[e]pyrrolo[1,2-a][1,4]diazacyclopentadecin-6-ylcarbamate] | < 5.46 | < 5.46 | – | – | –

Reference: US9527885B2, “Hepatitis C virus inhibitors” (BRISTOL-MYERS SQUIBB COMPANY, priority 2011, dated 2016)
